# Results reported in US5591828A, “Bispecific and oligospecific mono-and oligovalent receptors, the preparation and use thereof” (Behringwerke Aktiengesellschaft, priority 1989, dated 1997).
# Experiments:
# Assay in all cases: Quantitative inhibition ELISA for MAbs by DTPA or EDTA complexes
# Format in all cases: binding, mouse (Balb/c)
# [1] = target: MAb 2050/531 (anti-DTPA/EDTA monoclonal antibody); conditions: solid phase Y-benzyl-DTPA-HSA, preincubation with competitor at RT for 30'
# Experimental: (§1) Isothiocyanatobenzyl-DTPA (formula 2) was covalently coupled as hapten onto human serum albumin (HSA as carrier) with a degree of derivatization of 19 benzyl-DTPA molecules per HSA molecule by the method described in (N. W. Brechbiel et al., Inorganic Chemistry25, (1986) 2772-2781). 20 μg of this hapten-carrier complex, into which cold Y had been complexed, were injected s.c. on day 0 with Freund's adjuvant, on day 7 and 14 with incomplete Freund's adjuvant and on day 21 with PBS into Balb/c mice. On day 24, the spleens of the mice with the highest anti-DTPA antibody titers were fused with the SP2/0-Ag14 myeloma cell line (Shulman et al., Nature 276, (1978) 269). The resulting hybridomas were tested in a DTPA-specific ELISA for the production of high-affinity MAbs against DTPA and EDTA. The ELISA comprised a solid phase which was loaded with a solution containing HSA-benzyl-DTPA-Y. The supernatant containing the MAb to be tested was preincubated with free chelate or its metal ion complexes, and its binding to the specific solid phase was measured. An enzyme amplification system which is coupled to an anti-mouse immunoglobulin antibody was used for this purpose. The details of these methods are described in Annex 1a and 1b.
# (§2) Quantitative inhibition ELISA for MAbs by DTPA or EDTA complexes
# (§3) 1) 50 μl of Y-benzyl-DTPA-HSA 19 conjugate with a concentration of 1 μg of conjugate per ml of PBS, pH 7.2, are pipetted into each well and incubated at room temperature (RT) overnight.
# (§4) 5) Preincubation of the diluted hybridoma supernatant with the competitor is carried out during the blocking (see Annex 1b).
# (§5) 6) 50 μl of the appropriately prediluted and preincubated hybridoma supernatants to be tested are applied to each well and incubated at RT for 30 min.
# (§6) 15) The extinctions are measured at 492 nm in a […]® […]. 50 μl of NADP with 50 μl of solution and 1200 μl of 0.1N H2 SO4 are employed as blank.
# (§7) Preincubation of the hybridoma supernatant with the competitor
# (§8) On the basis of the ELISA concentration determination, the hybridoma supernatants are diluted to 1.25 μg/ml in PBS without Ca^++ and Mg^++.
# (§9) The hybridoma supernatant is incubated with 100,000-fold, 50,000-fold, 10,000-fold, 5,000-fold, 1,000-fold and 100-fold excess of competitor at RT for 30'. 50 μl of this are pipetted into the ELISA (see Annex 1a, no. 6).
# (§10) The complexing constant of DTPA or EDTA to the metal ions depicted in Table I is extremely high so that complete saturation has to be expected on equimolar mixing of DTPA or EDTA with these metal ions. For this reason, the corresponding metal ions were incubated in a 3-fold molar excess with the DTPA or EDTA. As an example, 170 μl of a 10 mM cadmium sulfate solution in double-distilled water (see Annex 1d) were incubated with 30 μl of a 0.028 molar DTPA stock solution in double-distilled water at RT for 5'. Mixing 10 μl of this competitor solution with the hybridoma supernatant leads to a 100,000-fold excess of competitor over the MAb contained in the hybridoma supernatant. Lower competitor to MAb ratios were achieved by diluting the competitor solution in the particular salt ion solution appropriately for the desired molar excess (see Annex 1b).
# (§11) Quantitative assay of inhibition of MAb by DTPA and EDTA
# (§12) Molar excess of competitor which leads to 50% inhibition of the binding to the solid-phase antigen.
# [2] = target: MAb 2050/532 (anti-DTPA/EDTA monoclonal antibody); conditions: solid phase Y-benzyl-DTPA-HSA, preincubation with competitor at RT for 30'
# Experimental: as §1, §2, §3, §4, §5, §6, §7, §8, §9, §10, §11, §12
# [3] = target: MAb 2050/534 (anti-DTPA/EDTA monoclonal antibody); conditions: solid phase Y-benzyl-DTPA-HSA, preincubation with competitor at RT for 30'
# Experimental: as §1, §2, §3, §4, §5, §6, §7, §8, §9, §10, §11, §12
# [4] = target: MAb 2050/535 (anti-DTPA/EDTA monoclonal antibody); conditions: solid phase Y-benzyl-DTPA-HSA, preincubation with competitor at RT for 30'
# Experimental: as §1, §2, §3, §4, §5, §6, §7, §8, §9, §10, §11, §12
# [5] = target: MAb BW 2050/174 (anti-DTPA/EDTA monoclonal antibody); conditions: MAb 2050/174; solid phase Y-benzyl-DTPA-HSA; preincubation with competitor at RT for 30'
# Experimental: as §1, §2, §3, §4, §5, §6, §7, §8, §9, §10, §11, §12
Structure (SMILES),Molar excess of competitor which leads to 50% inhibition of the binding to the solid-phase antigen [1],Molar excess of competitor which leads to 50% inhibition of the binding to the solid-phase antigen [2],Molar excess of competitor which leads to 50% inhibition of the binding to the solid-phase antigen [3],Molar excess of competitor which leads to 50% inhibition of the binding to the solid-phase antigen [4],Molar excess of competitor which leads to 50% inhibition of the binding to the solid-phase antigen [5]
"NCCN [1,2-Diaminoethane, 1,2-diaminoethane]",> 10^5 molar excess,> 10^5 molar excess,> 10^5 molar excess,> 10^5 molar excess,> 10^5 molar excess
O=C([O-])CN(CCN(CC(=O)[O-])CC(=O)[O-])CCN(CC(=O)[O-])CC(=O)[O-].[Y+3] [DTPA-Y],5 × 10^4 molar excess,5 × 10^4 molar excess,5 × 10^4 molar excess,10^4 molar excess,10^4 molar excess
O=C([O-])CN(CCN(CC(=O)[O-])CC(=O)[O-])CC(=O)[O-].[Cu+2] [EDTA-Cu],10^2 molar excess,5 × 10^3 molar excess,10^3 molar excess,10^2 molar excess,10^3 molar excess

# Second part, the compound after the results:
Molar excess of competitor which leads to 50% inhibition of the binding to the solid-phase antigen [1],Molar excess of competitor which leads to 50% inhibition of the binding to the solid-phase antigen [2],Molar excess of competitor which leads to 50% inhibition of the binding to the solid-phase antigen [3],Molar excess of competitor which leads to 50% inhibition of the binding to the solid-phase antigen [4],Molar excess of competitor which leads to 50% inhibition of the binding to the solid-phase antigen [5],Structure (SMILES)
10^3 molar excess,10^3 molar excess,10^3 molar excess,10^3 molar excess,10^3 molar excess,"O=C(O)CN(CCN(CC(=O)O)CC(=O)O)CCN(CC(=O)O)CC(=O)O [DTPA, diethylenetriaminepentaacetate]"
5 × 10^3 molar excess,5 × 10^3 molar excess,5 × 10^3 molar excess,10^3 molar excess,5 × 10^3 molar excess,O=C([O-])CN(CCN(CCN(CC(=O)O)CC(=O)O)CC(=O)O)CC(=O)[O-].[Zn+2] [DTPA-Zn]
10^3 molar excess,10^3 molar excess,10^3 molar excess,10^2 molar excess,10^3 molar excess,O=C([O-])CN(CCN(CC(=O)O)CC(=O)O)CC(=O)[O-].[Zn+2] [EDTA-Zn]
> 10^5 molar excess,> 10^5 molar excess,> 10^5 molar excess,> 10^5 molar excess,> 10^5 molar excess,"O=C(O)/C=C(\CC(=O)O)C(=O)O [Trans-aconitic acid, transaconitic acid]"
